Test results from US20250205217A1, “METHODS OF IMPROVING CANCER IMMUNOTHERAPY” (THE REGENTS OF THE UNIVERSITY OF CALIFORNIA, priority 2022, published 2025).
“Also recorded” adds a separate entry of the source.

What was measured:
[1] = system: oxylipin; assay: LCMS/MS oxylipin analysis of MB49 bladder cancer tumor tissue; format: in vivo; conditions: mice on the control diet only
Procedure: These lipid mediators are potential biomarkers of bladder cancer and the anti-tumor response to the diets (e.g. omega-3 or omega-6 fatty acids), immunotherapy (e.g., anti-PD1), and sEH inhibitor (e.g., 5026). (A) Heatmap of LCMS/MS oxylipin analysis performed on murine MB49 bladder cancer tumor tissue. […] Tumor tissue from mice treated with the control diet only. […] Tumor tissue from mice treated with the control diet only.

[2] = system: MB49 bladder cancer cells; assay: Murine bladder cancer model (MB49), subcutaneous tumor growth; format: in vivo, mice; conditions: for MB49 tumor volume, combination with anti-PD1: omega-6 rich diet, 5 mg/kg/day via drinking water + anti-PD1 200 μg Q3D, vs either agent alone, P<0.05
Excerpt: 10^6 MB49 cells were introduced into mice, and treatment was initiated with established tumors (˜200 mm^3), seven days after tumor injection. The CTLA-4 antibody used is from BioCell, Catalog number BE0131; In VivoMAb anti-mouse CTLA-4 (CD152). See, FIG. 1A and FIG. 1B.
The mice in this study were randomized, and treatment was initiated with established tumors (˜200 mm^3), seven days after […]. See, FIG. 2A-2C; FIG. 9A-9F.
(A & B). Mice were inoculated subcutaneously with 1×10^6 MB49 cells. Treatment initiated when MB49 tumors reached ˜200 mm^3. Mice were randomized and treated with PTUPB (60 mg/kg Q3D, orally) or chemotherapy (cisplatin+gemcitabine; cisplatin=5 mg/kg, gemcitabine=75 mg/kg, Q3D). Mice were sacrificed after 16 days of treatment. n=4-5 mice/group. Gene expression levels of sEH and COX-2 in tumor tissue after 16 days of treatment. Analyzed by qPCR and normalized by GAPDH. A: **Control vs chemotherapy (p=0.0099), **PTUPB vs chemotherapy (p=0.0095); B. **Control vs chemotherapy (p=0.0072), ***PTUPB vs chemotherapy (p=0.0001). (C) Mice were inoculated subcutaneously with 1×10^6 MB49 cells. Treatment initiated when MB49 tumors reached ˜200 mm^3. Mice were randomized and treated with combinations of PTUPB (60 mg/kg Q3D, orally), anti-PD1 (200 μg Q3D), anti-CTLA4 ([…]), chemotherapy (cisplatin+gemcitabine; cisplatin=5 mg/kg, gemcitabine=75 mg/kg, Q3D). Mice were sacrificed after 16 days of treatment. n=4-5 mice/group. *p<0.05. (D and E). Gene expression levels of EGF and VEGF-C in tumor tissue after 16 days of treatment. Analyzed by qPCR and normalized by GAPDH. D: *chemotherapy vs chemotherapy+PTUPB (p=0.0136); E: **Control vs anti-CTLA4 (p=0.0012), **PTUPB vs anti-CTLA4 (p=0.0081), **anti-CTLA4 vs anti-CTLA4+PTUPB (0.0296). (F) Mice were inoculated orthotopically into the bladder wall with 5×10^5 MB49 cells. Treatment was initiated 3 days after tumor injection with PTUPB (60 mg/kg Q3D, orally). n=5 mice per group. **PTUPB vs control (p=0.0018).
(§1) (A) MB49 bladder cancer tumor volume over time. Following 12 days of pre-treatment with the omega-6 rich diet, tumor cells (1×10^6 MB49 bladder cancer cells) were injected subcutaneously into the mid dorsum. Once tumors reached ˜200 mm^3, treatment was initiated with anti-PD1 (200 μg Q3D), EC5026 (5 mg/kg/day via drinking water), combination anti-PD1+EC5026, or no treatment (control). […] N=3-5 mice per group. P<0.05. (B) B16F10 melanoma tumor volume over time. […]. Following 12 days of pre-treatment with the omega-6 rich diet, tumor cells (1×10^6 B16F10 melanoma cells) were injected subcutaneously into the mid dorsum. Once tumors reached ˜200 mm^3, treatment was initiated with anti-CTLA4 (200 μg 1st dose, then 100 μg Q3D), 1770 (5 mg/kg/day via drinking water), combination 1770+anti-CTLA4, or no treatment (control). […] N=4-5 mice per group.
FIGS. 6A-6E Dietary omega-3 supplementation inhibits tumor growth in both fast-growing and slow-growing tumor models in mice. (A) Prostate cancer (RM1) tumor growth over time. Following 12 days of pre-treatment with the omega-3 rich diet or control diet, tumor cells (1×10^5 RM1 prostate cancer cells) were injected subcutaneously into the mid dorsum. […] N=3-5 mice/group. (B) MB49 bladder cancer tumor volume over time. Following 12 days of pre-treatment with the omega-3 rich diet or control diet, tumor cells (1×10^6 MB49 bladder cancer cells) were injected subcutaneously. […] N=3-5 mice/group. […]

[3] = system: B16F10 melanoma cells; assay: B16F10 melanoma tumor volume over time; format: in vivo, mice; conditions: omega-6 rich diet; 5 mg/kg/day via drinking water + anti-CTLA4; vs either agent alone
Procedure: as §1
(A) MB49 bladder cancer tumor volume over time. Following 12 days of pre-treatment with the omega-3 rich diet or control diet, tumor cells (1×10^6 MB49 bladder cancer cells) were injected subcutaneously into the mid dorsum. Once tumors reached ˜200 mm^3, treatment was initiated with either anti-PD1 (200 μg Q3D) or no treatment (control). […] N=3-5 mice per group. p<0.0001. (B) Prostate cancer (RM1) tumor volume over time. […]

CC[C@H](C)C(=O)N1CCC(NC(=O)Nc2ccc(OC(F)(F)F)c(F)c2)CC1 [EC5026]
levels of 7,8-DiHDPE, 17,18-DiHETE, and 15,16-DiHODE in MB49 bladder cancer tissue [1]: prevented this increase
levels of 15(16)-EpODE, 12(13)-EpOME, 17(18)-EpETE and 14(15)-EpETrE in MB49 bladder cancer tissue [1]: prevented the drop in these metabolites, and increased levels of these metabolites compared to controls
MB49 tumor volume, combination with anti-PD1 ([2]; 5 mg/kg/day): significantly smaller tumors
MB49 tumor volume, combination with anti-PD1 ([2]; listed as 5026, 5 mg/kg/day): unexpected induction of tumor regression; also recorded: synergizes with immunotherapy

NS(=O)(=O)c1ccc(-n2nc(CCCNC(=O)Nc3ccc(C(F)(F)F)cc3)cc2-c2ccccc2)cc1 [PTUPB]
tumor growth, combination with immunotherapy (anti-CTLA-4) ([2]; 10^6 MB49 cells, established tumors (~200 mm^3), seven days after tumor injection, FIG. 1): unexpected induction of tumor regression; also recorded: enhances immunotherapy
tumor growth, alone and with chemotherapy or immunotherapy ([2]; PTUPB 60 mg/kg Q3D orally, MB49, FIG. 9): blocks tumor growth and enhances chemotherapy and immunotherapy
tumor growth, combination with chemotherapy (gemcitabine and cisplatin) and immunotherapy ([2]; established MB49 tumors (~200 mm^3), 16 days of treatment, FIG. 2, FIG. 9): unexpected induction of tumor regression; also recorded: induce tumor regression

CCC(=O)N1CCC(NC(=O)Nc2ccc(OC(F)(F)F)cc2)CC1 [Compound 1770]
B16F10 melanoma tumor volume, combination with anti-CTLA4 [3]: tended to have smaller tumors
